Test results from US8455505B2, “Pyrrolopyrimidinedione and its therapeutic use” (Chiesi Farmaceutici S.p.A., priority 2009, dated 2013).

What was measured:
[1] = tested on: HNE Induced Lung Haemorrhage in the Rat; assay: HNE induced lung haemorrhage in the rat; assay type: in vivo; conditions: 100 μg/kg i.t., 6 hours prior to HNE, free base, statistically significant
Source text: HNE Induced Lung Haemorrhage in the Rat
Instillation of human neutrophil elastase (HNE) into rat lung causes acute lung damage. The extent of this injury can be assessed by measuring lung haemorrhage.
Male Sprague Dawley rats (175-220 g) were obtained from Harlan UK Ltd., full barrier-bred and certified free from specified micro-organisms on receipt. Animals were weighed and randomly assigned to treatment groups (7-12 animals to per group).
The vehicle used was 1% DMSO/Saline. Inhibitors were dissolved in 1% DMSO before the addition of 0.9% saline.
Animals in each study used to determine the efficacy of the elastase inhibitors delivered locally to the lung by a variety of routes. […]
Once defrosted 100 μl of each lysed cell suspension was placed into a separate well of a 96 well flat bottomed plate. […] The OD of the contents of each well was measured at 415 nm using a spectramax 250 (Molecular devices). […]
The amount of blood in each experimental sample was calculated by comparison to the standard curve. Data were then analysed as below: • 1) The mean OD for duplicates was calculated • 2) The value for the blank was subtracted from the value for all other samples • 3) Data were assessed to evaluate the normality of distribution.

[2] = PK assay: half life in the lung after intra-tracheal administration; assay type: in vivo; conditions: rat, other: intra-tracheal, 10 ug/kg; male Sprague-Dawley rats, single intra-tracheal dose 10 μg/Kg, lung homogenate; free base; read-out: terminal lung t1/2 (converted)
Protocol: Comparison of the Half Lives in the Lung of the Compound of the Invention and the Compound of Example 18 of WO2007/129060
Test material was formulated at 20 μg/mL in 0.2% Tween 80 in saline. Solutions were sonicated and warmed in a water bath at 40° C. prior to dosing. Male Sprague-Dawley rats received a single intra-tracheal administration of the test material via a Penn-Century dosing needle at the nominal dose level of 10 μg/Kg. After dosing five rats from each group were terminally anaesthetized with sodium pentobarbitone at 1, 2, 4, 8, 24, 72 and 96 hours for compound (IA) (free base) and 1, 4, 8, 24, 72, 96, 168, 264 and 336 for compound (II) (free base) post dose. Blood was sampled from the tail vein, following which the chest was opened, the animal exanguinated by perfusion and the lungs removed and snap frozen. After collection the blood samples were centrifuged (10000×g, 2 min at 4° C.). Plasma was removed and both stored frozen at −20° C. Rat lungs were homogenised in water (on ice) to give a ratio of 1 part lung:2 parts water (w/v). A 100 μL aliquot of each homogenate was extracted by addition of 200 μL acetonitrile containing an analytical internal standard. […]
Test material was analysed on a triple quadrupole mass spectrometer (AB Sciex API 3000) fitted with LC pump and autosampler (Reliance). Test material was detected in positive ion mode Turbo Ion Spray. […]

[3] = molecular target: T1, human leukocyte elastase (Homo sapiens, UniProt P08246); assay: Enzyme inhibition assay using fluorescent peptide substrate; assay type: biochemical; conditions: MeO-Suc-Ala-Ala-Pro-ValAMC substrate 100 μM, free base, means of two independent experiments
T1 construct: purchased Sigma E8140
T1 sequence (P08246 30-247 limits assumed): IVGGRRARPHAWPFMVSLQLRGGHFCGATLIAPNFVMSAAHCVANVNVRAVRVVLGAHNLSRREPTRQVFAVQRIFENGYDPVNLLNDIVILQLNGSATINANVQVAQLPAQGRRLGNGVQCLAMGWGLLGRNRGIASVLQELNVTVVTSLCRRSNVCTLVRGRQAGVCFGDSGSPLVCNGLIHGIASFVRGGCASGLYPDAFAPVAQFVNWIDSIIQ
Protocol: Using Fluorescent Peptide Substrate
Assays were performed in 96-well plates at a total assay volume of 100 μl. The final concentration of the enzyme (human leukocyte elastase, Sigma E8140) was 0.00036 units/well. A peptide substrate (MeO-Suc-Ala-Ala-Pro-ValAMC (SEQ ID NO: 1), Calbiochem #324745) was used, at the final concentration of 100 μM. The final concentration of DMSO was 1% in the assay buffer (0.05M Tris.HCl, pH 7.5, 0.1M NaCl; 0.1M CaCl2; 0.0005% brij-35).
The enzymatic reaction was started by adding the enzyme. The enzymatic reaction was performed at RT and after 30 mins stopped by adding 50 μl soybean trypsin inhibitor (Sigma T-9003) at a final concentration of 50 μg/well. Fluorescence was read on the FLEXstation (Molecular Devices) using 380 nm excitation and 460 nm emission filters. […] The results are means of two independent experiments, each performed in duplicate.
The results are means of two independent experiments, each performed in duplicate.

Compound	reduction in haemorrhage relative to control [1] [%]	half-life [2] [h]	IC50 [3] [nM]
N#Cc1ccc([C@H]2NC(=O)N(c3cccc(C(F)(F)F)c3)C3=C2C(=O)N(CCCNCCCN2CC4=C(C2=O)[C@@H](c2ccc(C#N)nc2)NC(=O)N4c2cccc(C(F)(F)F)c2)C3)cn1 [Compound (IA)]	95	37	8.4
N#Cc1ccc([C@H]2NC(=O)N(c3cccc(C(F)(F)F)c3)C3=C2C(=O)N(CCCNCCCN2CC4=C(C2=O)[C@@H](c2ccc(C#N)cc2)NC(=O)N4c2cccc(C(F)(F)F)c2)C3)cc1 [Compound (II)]	88	94	2.1
